Our source for the IC50 values is patent US10221139B2, “Inhibitors of histone demethylases” (Gilead Sciences, Inc., priority 2012, dated 2019).

Structures are written as SMILES.

Type in all cases: biochemical
For one experiment, the target named is T1, UTX (KDM6A) (Homo sapiens, UniProt O15550).
T1 construct: 919-1401; host or cells: E. coli
Put plainly: Histone lysine demethylase AlphaLISA assay, UTX. Conditions: substrate BK27M3. The procedure:
(§1) Example 2: Histone Lysine Demethylase AlphaLISA Assays for IC50 Value Determination
(§2) Assays are performed analogously to the protocol described by Perkin Elmer (Roy et al. Perkin Elmer Technical Note: AlphaLISA #12, April 2011).
(§3) Enzymes are dissolved in enzyme buffer and incubated for 10 min before 5 μL is added to 5 μL 3% DMSO solutions of compounds in enzyme buffer. Incubated for another 10 minutes, before 5 μL substrate solution is added and the reaction mixture is incubated at room temperature for the given period. 10 μL acceptor beads, suspended at given dilutions in Epigenetic Buffer (Perkin Elmer AL008) from stock, are added and the suspension is incubated 60 minutes in the dark at room temperature, before 10 μL suspension (at the given dilutions in Epigenetic Buffer) of streptavidin donor beads (Perkin Elmer 6760002) in Epigenetic Buffer is added. After incubation at room temperature in the dark the plates are read. Reaction conditions are seen in Table 2b.
Background: Alpha assays give light when donor and acceptor beads are brought close together.

Another experiment has as its target T2, PLU1 (KDM5B) (Homo sapiens, UniProt Q9UGL1).
T2 construct: 1-809; host or cells: E. coli
T2 sequence (Q9UGL1 1-809): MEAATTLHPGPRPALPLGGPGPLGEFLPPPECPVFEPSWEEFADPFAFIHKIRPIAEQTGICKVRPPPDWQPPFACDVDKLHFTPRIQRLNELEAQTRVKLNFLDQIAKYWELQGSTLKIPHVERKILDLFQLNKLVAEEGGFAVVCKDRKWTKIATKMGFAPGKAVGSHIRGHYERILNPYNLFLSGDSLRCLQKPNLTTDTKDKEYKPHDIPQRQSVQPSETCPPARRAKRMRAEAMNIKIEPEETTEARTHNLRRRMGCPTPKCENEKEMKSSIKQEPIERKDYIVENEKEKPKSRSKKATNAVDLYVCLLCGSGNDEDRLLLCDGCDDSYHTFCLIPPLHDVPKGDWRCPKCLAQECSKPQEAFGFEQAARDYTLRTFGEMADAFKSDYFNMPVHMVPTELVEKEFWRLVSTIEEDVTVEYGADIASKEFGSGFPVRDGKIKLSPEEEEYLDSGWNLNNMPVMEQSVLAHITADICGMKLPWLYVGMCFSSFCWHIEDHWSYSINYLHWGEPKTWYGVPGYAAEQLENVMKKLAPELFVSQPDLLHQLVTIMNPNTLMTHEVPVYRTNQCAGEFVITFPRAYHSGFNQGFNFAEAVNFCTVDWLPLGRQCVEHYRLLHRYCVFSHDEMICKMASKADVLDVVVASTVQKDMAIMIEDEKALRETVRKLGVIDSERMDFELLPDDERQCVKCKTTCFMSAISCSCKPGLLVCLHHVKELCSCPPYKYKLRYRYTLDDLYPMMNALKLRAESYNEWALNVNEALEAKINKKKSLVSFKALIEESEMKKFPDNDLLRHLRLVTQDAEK
The experiment is described as follows: Histone lysine demethylase AlphaLISA assay, PLU1. Conditions: substrate H3K4M3B. The procedure: as §1, §2, §3

The target in the next experiment is T3, GASC1 (KDM4C, JMJD2C) (Homo sapiens, UniProt Q9H3R0).
T3 construct: 1-349; host or cells: E. coli
T3 sequence (Q9H3R0 1-349): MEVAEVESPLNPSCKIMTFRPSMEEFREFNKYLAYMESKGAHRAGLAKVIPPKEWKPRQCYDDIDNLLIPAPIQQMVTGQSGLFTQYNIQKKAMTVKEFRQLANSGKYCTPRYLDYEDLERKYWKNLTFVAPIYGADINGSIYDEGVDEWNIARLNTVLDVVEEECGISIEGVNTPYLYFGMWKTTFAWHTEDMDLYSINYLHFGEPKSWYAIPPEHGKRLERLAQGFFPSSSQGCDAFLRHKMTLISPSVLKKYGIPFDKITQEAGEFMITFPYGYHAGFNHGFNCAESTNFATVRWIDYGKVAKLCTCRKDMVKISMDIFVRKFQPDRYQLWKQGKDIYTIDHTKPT
Put plainly: Histone lysine demethylase AlphaLISA assay, GASC1. Conditions: substrate BK9M3. As for the experimental part:
as §1, §2, §3

T1 sequence (O15550 919-1401): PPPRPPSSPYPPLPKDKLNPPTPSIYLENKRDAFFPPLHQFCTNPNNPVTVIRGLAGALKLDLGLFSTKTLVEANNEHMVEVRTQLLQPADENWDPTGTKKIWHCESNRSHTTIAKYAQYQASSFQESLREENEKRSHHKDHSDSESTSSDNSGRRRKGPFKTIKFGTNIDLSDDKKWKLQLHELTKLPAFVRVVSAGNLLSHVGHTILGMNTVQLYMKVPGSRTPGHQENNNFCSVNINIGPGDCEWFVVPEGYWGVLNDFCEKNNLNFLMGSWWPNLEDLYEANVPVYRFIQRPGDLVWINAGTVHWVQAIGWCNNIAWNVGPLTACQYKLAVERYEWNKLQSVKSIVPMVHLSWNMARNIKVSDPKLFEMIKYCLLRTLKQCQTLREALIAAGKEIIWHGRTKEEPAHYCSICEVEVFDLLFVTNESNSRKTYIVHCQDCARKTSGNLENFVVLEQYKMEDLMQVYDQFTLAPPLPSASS

`CCN(CCN(C)C)C(=O)CNCc1cc(C(=O)Nc2nccn2C)ccn1` [#89, 2-{[({[2-(dimethylamino)ethyl](ethyl)carbamoyl}methyl)amino]methyl}-N-(1-methyl-1H-imidazol-2-yl)pyridine-4-carboxamide]: the IC50 against UTX (KDM6A) was under 100 nM; at PLU1 (KDM5B), under 100 nM; against GASC1 (KDM4C, JMJD2C) it was 100 to 1000 nM.

For `CCN(CC)CCCCNCc1cc(C(=O)OCCCN(C)C)ccn1` [#54, 3-(dimethylamino)propyl 2-({[4-(diethylamino)butyl]amino}methyl)pyridine-4-carboxylate], the IC50 against UTX (KDM6A) was at least 1000 nM; against PLU1 (KDM5B), under 100 nM; against GASC1 (KDM4C, JMJD2C), 100 to 1000 nM.

Take `CN(CCCNCc1cc(C(=O)O)ccn1)Cc1ccccc1F` [#36, 2-{[(3-{[(2-fluorophenyl)methyl](methyl)amino}propyl)amino]methyl}pyridine-4-carboxylic acid]: the IC50 is at least 1000 nM on UTX (KDM6A); under 100 nM on PLU1 (KDM5B); under 100 nM at GASC1 (KDM4C, JMJD2C).

Regarding `CN1CCN(Cc2ccc(CN(C)C(=O)CNCc3cc(C(=O)O)ccn3)cc2)CC1` [#42, 2-[({[methyl({4-[(4-methylpiperazin-1-yl)methyl]phenyl}methyl)carbamoyl]methyl}amino)methyl]pyridine-4-carboxylic acid], the IC50 was 100 to 1000 nM against UTX (KDM6A); under 100 nM against PLU1 (KDM5B); under 100 nM against GASC1 (KDM4C, JMJD2C).

With `O=C(O)c1ccnc(CNCCCNCCOc2ccccc2)c1` [#41, 2-[({3-[(2-phenoxyethyl)amino)propyl}amino)methyl]pyridine-4-carboxylic acid], the IC50 against UTX (KDM6A) was at least 1000 nM; on PLU1 (KDM5B), under 100 nM; against GASC1 (KDM4C, JMJD2C), under 100 nM.

In the case of `CCOC(=O)c1ccnc(CNCC(=O)N(CC)CCN(C)C)c1` [#65, ethyl 2-{[({[2-(dimethylamino)ethyl](ethyl)carbamoyl}methyl)amino]methyl}pyridine-4-carboxylate], the IC50 is under 100 nM at UTX (KDM6A); 100 to 1000 nM on PLU1 (KDM5B); 100 to 1000 nM on GASC1 (KDM4C, JMJD2C).

For `CN(Cc1ccnn1C)C(=O)CNCc1cc(C(=O)O)ccn1` [#27, 2-{[({methyl[(1-methyl-1H-pyrazol-5-yl)methyl]carbamoyl}methyl)amino]methyl}pyridine-4-carboxylic acid], the IC50 against UTX (KDM6A) was at least 1000 nM; against PLU1 (KDM5B), under 100 nM; on GASC1 (KDM4C, JMJD2C) it was under 100 nM.

On to `O=C(O)c1ccnc(CNCCCNCCCN2CCCC2)c1` [#21, 2-{[(3-{[3-(pyrrolidin-1-yl)propyl]amino}propyl)amino]methyl}pyridine-4-carboxylic acid], for which the IC50 at UTX (KDM6A) is at least 1000 nM; on PLU1 (KDM5B), under 100 nM; against GASC1 (KDM4C, JMJD2C) it was under 100 nM.

As for `C=CC(CCNC(=O)C(F)(F)F)OC(=O)c1ccnc(CNCC(=O)N(CC)CCN(C)C)c1` (stereo not drawn) [#66, 5-(trifluoroacetamido)pent-1-en-3-yl 2-{[({[2-(dimethylamino)ethyl](ethyl)carbamoyl}methyl)amino]methyl}pyridine-4-carboxylate], the IC50 was under 100 nM on UTX (KDM6A); 100 to 1000 nM against PLU1 (KDM5B); 100 to 1000 nM against GASC1 (KDM4C, JMJD2C).

With `CCOC(=O)c1ccccc1OC(=O)c1ccnc(CNCCCCN(CC)CC)c1` [#52, 2-(ethoxycarbonyl)phenyl 2-({[4-(diethylamino)butyl]amino}methyl)pyridine-4-carboxylate], the IC50 was at least 1000 nM on UTX (KDM6A); under 100 nM at PLU1 (KDM5B); 100 to 1000 nM on GASC1 (KDM4C, JMJD2C).

As to `CCN(CCC#N)C(=O)CNCc1cc(C(=O)O)ccn1` [#33, 2-[({[(2-cyanoethyl)(ethyl)carbamoyl]methyl}amino)methyl]pyridine-4-carboxylic acid], the IC50 at UTX (KDM6A) was at least 1000 nM; against PLU1 (KDM5B), under 100 nM; against GASC1 (KDM4C, JMJD2C), under 100 nM.

For `CC(C)(C)OC(=O)N1CC[C@@H](NCc2cc(C(=O)O)ccn2)C1` [#19, 2-({[(3R)-1-[(tert-butoxy)carbonyl]pyrrolidin-3-yl]amino}methyl)pyridine-4-carboxylic acid], the IC50 at UTX (KDM6A) was at least 1000 nM; at PLU1 (KDM5B), at least 1000 nM; on GASC1 (KDM4C, JMJD2C), at least 1000 nM.

As a reminder, the IC50 is the concentration at which inhibition is half-maximal. Read a low IC50 as greater potency in that assay.
